Results: patent US20230301300A1, “HERBICIDAL COMPOSITIONS” (SYNGENTA CROP PROTECTION AG, priority 2020, published 2023)

How the values were obtained:
Assay type in all cases: in vivo
[1] = system: Amaranthus retoflexus (AMARE); test: B1 Post-Emergence Efficacy - Test 1; conditions: 1000 g/ha, after 13 days, five point scale
Summary of the method: (§1)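 Pot-grown plants were sprayed 8 days after sowing (post-emergence) with compound at 1000 g/ha in acetone/water (50:50) containing 0.5% Tween 20. Glasshouse conditions were 24/16° C. day/night, 14 hours light, 65% humidity. Percentage damage was assessed after 13 days and scored on a 1–5 scale (5=80-100%; 1=0-19%).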

[2] = system: Ipomoea hederacea (IPOHE); test: B1 Post-Emergence Efficacy - Test 1; conditions: 1000 g/ha, after 13 days, five point scale
Summary of the method: as §1

Lolium perenne (LOLPE) = test: B1 Post-Emergence Efficacy - Test 1; conditions: 1000 g/ha, after 13 days, five point scale
Summary of the method: as §1

Setaria faberi (SETFA) [3] = test: B1 Post-Emergence Efficacy - Test 1; conditions: 1000 g/ha, after 13 days, five point scale
Summary of the method: as §1

[4] = system: Echinochloa crus-galli (ECHCG); test: B1 Post-Emergence Efficacy - Test 1; conditions: 1000 g/ha, after 13 days, five point scale
Summary of the method: as §1

Solanum nigrum (SOLNI) = test: B1 Post-Emergence Efficacy - Test 1; conditions: 1000 g/ha, after 13 days, five point scale
Summary of the method: as §1

[5] = system: Brachiaria plantaginea (BRAPL); test: B2 Post-Emergence Efficacy - Test 2; conditions: 15 days after application, 0=no damage, 100=total kill
Summary of the method: (§2)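 Score 0–100 (0 none, 100 kill), 15 d after spraying. Treatment: IF50 formulation in aqueous spray, adjuvant Genapol X080 at 0.2% v/v, applied to plants 12 d after sowing. Glasshouse day/night 24/18 or 20/16 °C, 16 h light, 65% humidity.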

Bromus tectorum (BROTE) = test: B2 Post-Emergence Efficacy - Test 2; conditions: 15 days after application, 0-100 scale
Summary of the method: as §2

[6] = system: Amaranthus retroflexus (AMARE); test: B2 Post-Emergence Efficacy - Test 2; conditions: 15 days after application, 0-100 scale
Summary of the method: as §2

Eleisine indica (ELEIN) = test: B2 Post-Emergence Efficacy - Test 2; conditions: 15 days after application, 0=no damage, 100=total kill
Summary of the method: as §2

Zea mays (ZEAMX) = test: B2 Post-Emergence Efficacy - Test 2; conditions: 15 days after application; for Herbicidal activity ZEAMX: 0-100 scale; for Herbicidal activity on a 0-100 scale, ZEAMX: 0=no damage, 100=total kill
Summary of the method: as §2

[7] = system: Chenopodium album (CHEAL); test: B2 Post-Emergence Efficacy - Test 2; conditions: 15 days after application, 0-100 scale
Summary of the method: as §2

Hordeum vulgare (HORVW) = test: B2 Post-Emergence Efficacy - Test 2; conditions: 15 days after application, 0-100 scale
Summary of the method: as §2

Kochia scoparia (KSHSC) = test: B2 Post-Emergence Efficacy - Test 2; conditions: 15 days after application, 0-100 scale
Summary of the method: as §2

Setaria faberi (SETFA) [8] = test: B2 Post-Emergence Efficacy - Test 2; conditions: 15 days after application, 0=no damage, 100=total kill
Summary of the method: as §2

Stellaria media (STEME) = test: B2 Post-Emergence Efficacy - Test 2; conditions: 15 days after application, 0-100 scale
Summary of the method: as §2

Brassica napus (BRSNN) = test: B2 Post-Emergence Efficacy - Test 2; conditions: 15 days after application, 0-100 scale
Summary of the method: as §2

Avena fatua (AVEFA) = test: B2 Post-Emergence Efficacy - Test 2; conditions: 15 days after application, 0-100 scale
Summary of the method: as §2

`Cc1nn(C)c(=O)c(-c2c(F)ccc(Cl)c2CCc2ccc(Cl)cc2)c1OC(=O)C(C)C` [Compound 1.089, [5-[3-chloro-2-[2-(4-chlorophenyl)ethyl]-6-fluoro-phenyl]-1,3-dimethyl-6-oxo-pyridazin-4-yl] 2-methylpropanoate] was tested, and the “percentage damage caused to the plant, AMARE” value [1] was 5 (5=80-100%), the “percentage damage caused to the plant, IPOHE” value [2] was 5 (5=80-100%) and the “percentage damage caused to the plant, LOLPE” value (Lolium perenne (LOLPE)) was 5 (5=80-100%). The “percentage damage caused to the plant, SETFA” value (Setaria faberi (SETFA) [3]) was 5 (5=80-100%), the “percentage damage caused to the plant, ECHCG” value [4] was 5 (5=80-100%) and the “percentage damage caused to the plant, SOLNI” value (Solanum nigrum (SOLNI)) was 5 (5=80-100%). For the same molecule, the “Herbicidal activity on a 0-100 scale, BRAPL” value (from here on “Herbicidal activity … BRAPL”) ([5]; 15 g/Ha) was 80, the “Herbicidal activity … BRAPL” value ([5]; 30 g/Ha) was 90 and the “Herbicidal activity … BRAPL” value ([5]; 250 g/Ha) was 90. For the same molecule, the “Herbicidal activity … BRAPL” value ([5]; 500 g/Ha) was 90, the “Herbicidal activity BROTE” value (Bromus tectorum (BROTE); 15 g/Ha) was 0 and the “Herbicidal activity BROTE” value (Bromus tectorum (BROTE); 30 g/Ha) was 0. For the same molecule, the “Herbicidal activity BROTE” value (Bromus tectorum (BROTE); 60 g/Ha) was 10, the “Herbicidal activity BROTE” value (Bromus tectorum (BROTE); 125 g/Ha) was 30 and the “Herbicidal activity BROTE” value (Bromus tectorum (BROTE); 250 g/Ha) was 60. The “Herbicidal activity BROTE” value (Bromus tectorum (BROTE); 500 g/Ha) was 70, the “Herbicidal activity AMARE” value ([6]; 15 g/Ha) was 80 and the “Herbicidal activity AMARE” value ([6]; 30 g/Ha) was 80. The “Herbicidal activity AMARE” value ([6]; 60 g/Ha) was 90, the “Herbicidal activity AMARE” value ([6]; 125 g/Ha) was 100 and the “Herbicidal activity AMARE” value ([6]; 250 g/Ha) was 100. The “Herbicidal activity AMARE” value ([6]; 500 g/Ha) was 100, the “Herbicidal activity on a 0-100 scale, ELEIN” value (shortened to “Herbicidal activity … ELEIN”) (Eleisine indica (ELEIN); 15 g/Ha) was 0 and the “Herbicidal activity … ELEIN” value (Eleisine indica (ELEIN); 30 g/Ha) was 0. For the same molecule, the “Herbicidal activity … ELEIN” value (Eleisine indica (ELEIN); 60 g/Ha) was 70, the “Herbicidal activity … ELEIN” value (Eleisine indica (ELEIN); 125 g/Ha) was 80 and the “Herbicidal activity … ELEIN” value (Eleisine indica (ELEIN); 250 g/Ha) was 90. The “Herbicidal activity … ELEIN” value (Eleisine indica (ELEIN); 500 g/Ha) was 90, the “Herbicidal activity ZEAMX” value (Zea mays (ZEAMX); 15 g/Ha) was 0 and the “Herbicidal activity on a 0-100 scale, ZEAMX” value (Zea mays (ZEAMX); 15 g/Ha) was 0. The “Herbicidal activity ZEAMX” value (Zea mays (ZEAMX); 30 g/Ha) was 20, the “Herbicidal activity on a 0-100 scale, ZEAMX” value (Zea mays (ZEAMX); 30 g/Ha) was 20 and the “Herbicidal activity ZEAMX” value (Zea mays (ZEAMX); 60 g/Ha) was 30. For the same molecule, the “Herbicidal activity on a 0-100 scale, ZEAMX” value (Zea mays (ZEAMX); 60 g/Ha) was 30, the “Herbicidal activity ZEAMX” value (Zea mays (ZEAMX); 125 g/Ha) was 30 and the “Herbicidal activity on a 0-100 scale, ZEAMX” value (Zea mays (ZEAMX); 125 g/Ha) was 30. The “Herbicidal activity ZEAMX” value (Zea mays (ZEAMX); 250 g/Ha) was 90, the “Herbicidal activity on a 0-100 scale, ZEAMX” value (Zea mays (ZEAMX); 250 g/Ha) was 90 and the “Herbicidal activity ZEAMX” value (Zea mays (ZEAMX); 500 g/Ha) was 100. The “Herbicidal activity on a 0-100 scale, ZEAMX” value (Zea mays (ZEAMX); 500 g/Ha) was 100, the “Herbicidal activity CHEAL” value ([7]; 15 g/Ha) was 80 and the “Herbicidal activity CHEAL” value ([7]; 30 g/Ha) was 90. The “Herbicidal activity CHEAL” value ([7]; 60 g/Ha) was 90, the “Herbicidal activity CHEAL” value ([7]; 125 g/Ha) was 100 and the “Herbicidal activity CHEAL” value ([7]; 250 g/Ha) was 100. For the same molecule, the “Herbicidal activity CHEAL” value ([7]; 500 g/Ha) was 100, the “Herbicidal activity HORVW” value (Hordeum vulgare (HORVW); 15 g/Ha) was 10 and the “Herbicidal activity HORVW” value (Hordeum vulgare (HORVW); 30 g/Ha) was 10. The “Herbicidal activity HORVW” value (Hordeum vulgare (HORVW); 60 g/Ha) was 20, the “Herbicidal activity HORVW” value (Hordeum vulgare (HORVW); 125 g/Ha) was 20 and the “Herbicidal activity HORVW” value (Hordeum vulgare (HORVW); 250 g/Ha) was 30. The “Herbicidal activity HORVW” value (Hordeum vulgare (HORVW); 500 g/Ha) was 60, the “Herbicidal activity KCHSC” value (Kochia scoparia (KSHSC); 15 g/Ha) was 10 and the “Herbicidal activity KCHSC” value (Kochia scoparia (KSHSC); 30 g/Ha) was 20. For the same molecule, the “Herbicidal activity KCHSC” value (Kochia scoparia (KSHSC); 60 g/Ha) was 50, the “Herbicidal activity KCHSC” value (Kochia scoparia (KSHSC); 125 g/Ha) was 60 and the “Herbicidal activity KCHSC” value (Kochia scoparia (KSHSC); 250 g/Ha) was 60. For the same molecule, the “Herbicidal activity KCHSC” value (Kochia scoparia (KSHSC); 500 g/Ha) was 60, the “Herbicidal activity on a 0-100 scale, SETFA” value (from here on “Herbicidal activity … SETFA”) (Setaria faberi (SETFA) [8]; 15 g/Ha) was 0 and the “Herbicidal activity … SETFA” value (Setaria faberi (SETFA) [8]; 30 g/Ha) was 20. For the same molecule, the “Herbicidal activity … SETFA” value (Setaria faberi (SETFA) [8]; 60 g/Ha) was 30, the “Herbicidal activity … SETFA” value (Setaria faberi (SETFA) [8]; 125 g/Ha) was 60 and the “Herbicidal activity … SETFA” value (Setaria faberi (SETFA) [8]; 250 g/Ha) was 60. For the same molecule, the “Herbicidal activity … SETFA” value (Setaria faberi (SETFA) [8]; 500 g/Ha) was 80, the “Herbicidal activity STEME” value (Stellaria media (STEME); 15 g/Ha) was 90 and the “Herbicidal activity STEME” value (Stellaria media (STEME); 30 g/Ha) was 90. The “Herbicidal activity STEME” value (Stellaria media (STEME); 60 g/Ha) was 90, the “Herbicidal activity STEME” value (Stellaria media (STEME); 125 g/Ha) was 90 and the “Herbicidal activity STEME” value (Stellaria media (STEME); 250 g/Ha) was 90. The “Herbicidal activity STEME” value (Stellaria media (STEME); 500 g/Ha) was 90, the “Herbicidal activity BRSNN” value (Brassica napus (BRSNN); 15 g/Ha) was 80 and the “Herbicidal activity BRSNN” value (Brassica napus (BRSNN); 30 g/Ha) was 80. For the same molecule, the “Herbicidal activity BRSNN” value (Brassica napus (BRSNN); 60 g/Ha) was 90, the “Herbicidal activity BRSNN” value (Brassica napus (BRSNN); 125 g/Ha) was 90 and the “Herbicidal activity BRSNN” value (Brassica napus (BRSNN); 250 g/Ha) was 90. For the same molecule, the “Herbicidal activity BRSNN” value (Brassica napus (BRSNN); 500 g/Ha) was 90, the “Herbicidal activity AVEFA” value (Avena fatua (AVEFA); 15 g/Ha) was 30 and the “Herbicidal activity AVEFA” value (Avena fatua (AVEFA); 30 g/Ha) was 70. For the same molecule, the “Herbicidal activity AVEFA” value (Avena fatua (AVEFA); 60 g/Ha) was 70, the “Herbicidal activity AVEFA” value (Avena fatua (AVEFA); 125 g/Ha) was 80 and the “Herbicidal activity AVEFA” value (Avena fatua (AVEFA); 250 g/Ha) was 90. For the same molecule, the “Herbicidal activity AVEFA” value (Avena fatua (AVEFA); 500 g/Ha) was 90.
